According to ChEMBL document CHEMBL1155531, “Structure guided design of 5-arylindazole glucocorticoid receptor agonists and antagonists” (J Med Chem, 2010):

Columns and labels:
[1] = molecular target: T1, Glucocorticoid receptor (Homo sapiens, UniProt P04150); test: Activity at GR in human A549 cells by NF-kappaB transrepression assay; format: cell-based
T1 sequence (P04150 whole entry): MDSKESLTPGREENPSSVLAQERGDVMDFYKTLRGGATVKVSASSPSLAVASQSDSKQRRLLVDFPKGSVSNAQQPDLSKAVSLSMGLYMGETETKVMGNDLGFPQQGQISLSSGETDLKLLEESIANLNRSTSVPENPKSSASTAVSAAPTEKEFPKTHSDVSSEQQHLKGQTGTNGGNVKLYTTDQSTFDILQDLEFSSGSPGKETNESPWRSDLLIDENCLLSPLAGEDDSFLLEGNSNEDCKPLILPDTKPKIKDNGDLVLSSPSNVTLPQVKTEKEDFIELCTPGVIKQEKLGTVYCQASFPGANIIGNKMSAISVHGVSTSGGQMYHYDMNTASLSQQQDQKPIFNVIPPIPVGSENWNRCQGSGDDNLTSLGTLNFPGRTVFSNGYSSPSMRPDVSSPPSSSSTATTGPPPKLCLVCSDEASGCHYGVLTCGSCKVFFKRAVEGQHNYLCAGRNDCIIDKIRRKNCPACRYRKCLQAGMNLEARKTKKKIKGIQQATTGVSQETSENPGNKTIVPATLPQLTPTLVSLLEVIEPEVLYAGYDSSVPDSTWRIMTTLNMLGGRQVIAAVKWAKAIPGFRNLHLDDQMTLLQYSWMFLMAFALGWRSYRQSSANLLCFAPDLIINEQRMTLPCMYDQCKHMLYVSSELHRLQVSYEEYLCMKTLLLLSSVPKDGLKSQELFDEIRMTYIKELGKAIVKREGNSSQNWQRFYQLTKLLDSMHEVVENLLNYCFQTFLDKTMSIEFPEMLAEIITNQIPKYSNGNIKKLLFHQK

[2] = molecular target: T1, Glucocorticoid receptor; test: Displacement of fluorescent-labeled Dexamethasone from GR by fluorescent polarization assay
[3] = molecular target: T1, Glucocorticoid receptor; test: Agonist activity at GR in human A549 cells transfected with luciferase gene linked to MMTV promoter assessed as luciferase transactivation activity after 24 hrs; format: functional, cell-based
[4] = molecular target: T2, Progesterone receptor (Homo sapiens, UniProt P06401); test: Binding affinity to PR
T2 sequence (P06401 whole entry): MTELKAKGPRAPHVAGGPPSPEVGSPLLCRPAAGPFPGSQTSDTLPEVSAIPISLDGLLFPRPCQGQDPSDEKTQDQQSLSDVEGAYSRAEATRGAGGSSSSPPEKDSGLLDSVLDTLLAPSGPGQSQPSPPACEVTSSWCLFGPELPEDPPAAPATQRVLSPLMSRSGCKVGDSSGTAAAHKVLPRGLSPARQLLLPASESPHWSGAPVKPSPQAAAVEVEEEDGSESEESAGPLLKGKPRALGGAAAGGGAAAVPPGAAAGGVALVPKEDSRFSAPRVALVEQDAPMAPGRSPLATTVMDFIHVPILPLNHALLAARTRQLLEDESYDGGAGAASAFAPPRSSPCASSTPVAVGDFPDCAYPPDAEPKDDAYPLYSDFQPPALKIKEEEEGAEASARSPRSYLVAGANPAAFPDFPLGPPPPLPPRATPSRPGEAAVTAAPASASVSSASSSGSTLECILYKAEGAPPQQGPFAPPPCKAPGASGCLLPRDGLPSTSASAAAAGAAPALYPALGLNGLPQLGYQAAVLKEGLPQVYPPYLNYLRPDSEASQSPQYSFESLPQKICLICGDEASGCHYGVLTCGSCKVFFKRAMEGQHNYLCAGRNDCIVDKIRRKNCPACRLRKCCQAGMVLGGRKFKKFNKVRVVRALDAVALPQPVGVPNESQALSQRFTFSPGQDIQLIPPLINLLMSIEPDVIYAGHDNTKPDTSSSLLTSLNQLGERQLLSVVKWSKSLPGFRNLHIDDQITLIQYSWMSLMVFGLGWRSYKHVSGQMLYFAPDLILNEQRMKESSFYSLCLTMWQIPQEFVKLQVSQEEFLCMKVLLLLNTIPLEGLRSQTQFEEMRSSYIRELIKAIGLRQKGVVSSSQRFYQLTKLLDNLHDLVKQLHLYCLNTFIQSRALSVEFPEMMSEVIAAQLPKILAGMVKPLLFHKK

[5] = molecular target: T3, Androgen receptor (Homo sapiens, UniProt P10275)
T3 sequence (P10275 whole entry): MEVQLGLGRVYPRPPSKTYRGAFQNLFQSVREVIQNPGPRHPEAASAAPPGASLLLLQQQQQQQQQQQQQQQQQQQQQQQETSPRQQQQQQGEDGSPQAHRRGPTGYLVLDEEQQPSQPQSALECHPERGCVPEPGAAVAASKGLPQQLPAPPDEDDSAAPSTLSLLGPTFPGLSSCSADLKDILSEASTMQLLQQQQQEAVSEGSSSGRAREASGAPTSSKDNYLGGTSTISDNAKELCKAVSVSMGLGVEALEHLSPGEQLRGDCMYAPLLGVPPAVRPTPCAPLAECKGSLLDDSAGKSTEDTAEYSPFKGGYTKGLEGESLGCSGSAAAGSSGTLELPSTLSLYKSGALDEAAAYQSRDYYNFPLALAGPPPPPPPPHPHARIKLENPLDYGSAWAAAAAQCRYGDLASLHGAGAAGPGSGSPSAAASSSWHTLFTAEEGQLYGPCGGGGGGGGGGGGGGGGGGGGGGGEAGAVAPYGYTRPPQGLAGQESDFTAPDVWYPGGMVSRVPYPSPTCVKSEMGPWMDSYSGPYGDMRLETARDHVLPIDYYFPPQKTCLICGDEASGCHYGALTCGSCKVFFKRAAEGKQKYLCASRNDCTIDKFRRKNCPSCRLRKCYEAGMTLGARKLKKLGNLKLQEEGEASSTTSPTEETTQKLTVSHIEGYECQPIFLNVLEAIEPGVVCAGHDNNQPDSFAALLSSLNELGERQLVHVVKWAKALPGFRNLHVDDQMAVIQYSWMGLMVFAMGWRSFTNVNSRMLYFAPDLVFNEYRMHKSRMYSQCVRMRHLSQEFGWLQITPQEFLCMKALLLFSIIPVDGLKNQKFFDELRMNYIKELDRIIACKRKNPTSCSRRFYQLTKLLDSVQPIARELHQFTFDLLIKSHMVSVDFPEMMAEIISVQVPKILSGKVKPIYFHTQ

[6] = molecular target: T1, Glucocorticoid receptor; test: Antagonist activity at GR in human A549 cells transfected with luciferase gene linked to MMTV promoter assessed as inhibition of dexamethasone-induced luciferase transactivation activity after 24 hrs; format: functional, cell-based

O=S(=O)(Nc1ccc(-c2ccc3c(cnn3-c3ccc(F)cc3)c2)c(C(F)(F)F)c1)c1ccsc1
IC50 [1]: 0.1 µM | IC50 [2]: 0.0126 µM | EC50 [3]: 0.251 µM | IC50 [4]: > 10 µM | IC50 [5]: 2.51 µM

CC(C)NS(=O)(=O)c1ccc(-c2ccc3c(cnn3-c3ccc(F)cc3)c2)c(C(F)(F)F)c1
IC50 [6]: 1.26 µM | IC50 [1]: > 10 µM | IC50 [2]: 0.0126 µM | IC50 [4]: 3.16 µM | IC50 [5]: > 10 µM

O=S(=O)(Nc1ccccc1)c1ccc(-c2ccc3c(cnn3-c3ccc(F)cc3)c2)c(C(F)(F)F)c1
IC50 [6]: 3.16 µM | IC50 [1]: > 10 µM | IC50 [2]: 0.0251 µM | IC50 [4]: > 10 µM | IC50 [5]: > 10 µM

Fc1ccc(-n2ncc3cc(-c4ccccc4)ccc32)cc1
IC50 [1]: > 10 µM | IC50 [2]: 3.16 µM | IC50 [4]: > 10 µM | IC50 [5]: > 10 µM

CN(c1ccccc1)S(=O)(=O)c1ccc(-c2ccc3c(cnn3-c3ccc(F)cc3)c2)c(C(F)(F)F)c1
IC50 [1]: 0.398 µM | IC50 [2]: 0.0126 µM | EC50 [3]: 0.631 µM | IC50 [4]: 0.794 µM | IC50 [5]: > 10 µM

CC(C)S(=O)(=O)Nc1ccc(-c2ccc3c(cnn3-c3ccc(F)cc3)c2)c(C(F)(F)F)c1
IC50 [1]: 0.0501 µM | IC50 [2]: 0.0126 µM | EC50 [3]: 0.158 µM | IC50 [4]: > 10 µM | IC50 [5]: > 10 µM

O=S(=O)(Nc1ccc(-c2ccc3c(cnn3-c3ccc(F)cc3)c2)c(C(F)(F)F)c1)c1ccccc1
IC50 [6]: 1.58 µM | IC50 [1]: > 10 µM | IC50 [2]: 0.0158 µM | IC50 [4]: > 10 µM | IC50 [5]: 6.31 µM

CC(C)(C)c1ccc(S(=O)(=O)Nc2ccc(-c3ccc4c(cnn4-c4ccc(F)cc4)c3)c(C(F)(F)F)c2)cc1
IC50 [6]: 10 µM | IC50 [1]: > 10 µM | IC50 [2]: 0.0501 µM | IC50 [4]: > 2.51 µM | IC50 [5]: > 10 µM

Oc1cccc(-c2ccc3c(cnn3-c3ccc(F)cc3)c2)c1
IC50 [1]: > 10 µM | IC50 [2]: 0.794 µM | IC50 [4]: 2.51 µM | IC50 [5]: > 10 µM

COc1cccc(S(=O)(=O)Nc2ccc(-c3ccc4c(cnn4-c4ccc(F)cc4)c3)c(C(F)(F)F)c2)c1
IC50 [1]: 0.0794 µM | IC50 [2]: 0.0158 µM | EC50 [3]: 0.251 µM | IC50 [4]: > 10 µM | IC50 [5]: 3.16 µM

CCOc1cccc(-c2ccc3c(cnn3-c3ccc(F)cc3)c2)c1
IC50 [1]: > 10 µM | IC50 [2]: 2.51 µM | IC50 [4]: > 10 µM | IC50 [5]: > 10 µM

Oc1ccc(-c2ccc3c(cnn3-c3ccc(F)cc3)c2)cc1
IC50 [1]: > 10 µM | IC50 [2]: 0.631 µM | IC50 [4]: > 10 µM | IC50 [5]: > 10 µM

CS(=O)(=O)Nc1ccc(-c2ccc3c(cnn3-c3ccc(F)cc3)c2)c(C(F)(F)F)c1
IC50 [6]: 1.58 µM | IC50 [1]: > 10 µM | IC50 [2]: 0.01 µM | IC50 [4]: > 10 µM | IC50 [5]: 5.01 µM

Fc1ccc(-n2ncc3cc(-c4ccccc4C(F)(F)F)ccc32)cc1
IC50 [1]: > 10 µM | IC50 [2]: 0.251 µM | IC50 [4]: 2.51 µM | IC50 [5]: > 10 µM

Fc1ccc(-n2ncc3cc(-c4cccc(C(F)(F)F)c4)ccc32)cc1
IC50 [1]: > 10 µM | IC50 [2]: 3.16 µM | IC50 [4]: 1.58 µM | IC50 [5]: > 10 µM
